Experimental data published in patent publication US10174016B2 (BAYER AKTIENGESELLSCHAFT, priority 2014, dated 2019).

Legend:
human P2X3 receptor = human P2X3 receptor (Homo sapiens (Human), UniProt P56373); assay: Intracellular calcium measurement (FLIPR, Fluo-4) of antagonist activity at human P2X3 receptors; type: cell-based; conditions: human P2X3, FLIPR calcium assay, agonist α,β-Me-ATP; read-out: hP2X3 IC50
Summary of the method: (§1)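 Antagonism quantified from peak calcium fluorescence (Fluo-4, FLIPR, 90 sec read) evoked by EC80 α,β-Me-ATP, after a 30 min, 37° C. compound pretreatment in 1% DMSO. Human P2X3- or P2X2/3-expressing cells used; triplicate means fitted for IC50, percent maximal inhibition and Hill coefficient.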

human P2X2/3 receptor = human P2X2/3 receptor (Homo sapiens (Human), UniProt P56373+Q9UBL9); assay: Intracellular calcium measurement (FLIPR, Fluo-4) of antagonist activity at human P2X2/3 receptors; type: cell-based; conditions: human P2X2/3, FLIPR calcium assay, agonist α,β-Me-ATP; read-out: hP2X2/3 IC50
Summary of the method: as §1

Sequence of human P2X2/3 receptor (P56373 whole entry): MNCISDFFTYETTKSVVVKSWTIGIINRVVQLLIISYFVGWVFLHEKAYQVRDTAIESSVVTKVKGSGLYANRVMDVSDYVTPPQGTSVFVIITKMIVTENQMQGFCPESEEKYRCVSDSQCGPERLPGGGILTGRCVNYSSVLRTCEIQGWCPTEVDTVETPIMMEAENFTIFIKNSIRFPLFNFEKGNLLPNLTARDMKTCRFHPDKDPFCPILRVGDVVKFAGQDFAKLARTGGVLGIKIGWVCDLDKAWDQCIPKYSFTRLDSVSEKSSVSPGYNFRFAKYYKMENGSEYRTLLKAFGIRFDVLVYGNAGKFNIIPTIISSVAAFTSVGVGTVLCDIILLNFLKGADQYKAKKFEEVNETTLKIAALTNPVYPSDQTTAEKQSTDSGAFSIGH
Sequence of human P2X2/3 receptor (Q9UBL9 whole entry): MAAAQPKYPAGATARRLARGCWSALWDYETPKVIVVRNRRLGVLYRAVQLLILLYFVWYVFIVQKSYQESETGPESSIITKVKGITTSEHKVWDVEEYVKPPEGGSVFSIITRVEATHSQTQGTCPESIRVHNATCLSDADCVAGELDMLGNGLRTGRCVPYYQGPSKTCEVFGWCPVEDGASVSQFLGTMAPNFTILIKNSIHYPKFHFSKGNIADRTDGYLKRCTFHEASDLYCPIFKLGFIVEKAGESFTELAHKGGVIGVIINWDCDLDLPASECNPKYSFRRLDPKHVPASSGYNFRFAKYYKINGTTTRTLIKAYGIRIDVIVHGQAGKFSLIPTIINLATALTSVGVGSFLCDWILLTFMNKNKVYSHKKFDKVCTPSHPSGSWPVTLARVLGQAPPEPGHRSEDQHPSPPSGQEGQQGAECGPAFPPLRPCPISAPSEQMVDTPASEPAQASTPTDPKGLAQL
Sequence of human P2X3 receptor (P56373 whole entry): as the sequence (P56373 whole entry) above

SMILES | IC50 (human P2X3 receptor) [nM] | IC50 (human P2X2/3 receptor) [nM]
CCc1cnc(-c2cc(O[C@@H]3CCOC3)cc(C(=O)N[C@H](C)c3ccc(C)nn3)c2)s1 [Example 240, 3-(5-ethyl-1,3-thiazol-2-yl)-N-[(1R)-1-(6-methylpyridazin-3-yl)ethyl]-5-[(3R)-tetrahydrofuran-3-yloxy]benzamide] | 12 | 35
CCc1cnc(-c2cc(O[C@@H]3CCOC3)cc(C(=O)N[C@H](C)c3cnc(C(F)(F)F)nc3)c2)s1 [Example 242, 3-(5-ethyl-1,3-thiazol-2-yl)-5-[(3R)-tetrahydrofuran-3-yloxy]-N-{(1R)-1-[2-(trifluoromethyl)pyrimidin-5-yl]ethyl}benzamide] | 2 | 22
Cc1ccc([C@@H](C)NC(=O)c2cc(O[C@@H]3CCOC3)cc(-c3ncc(C(C)C)s3)c2)nn1 [Example 246, N-[(1R)-1-(6-methylpyridazin-3-yl)ethyl]-3-[5-(propan-2-yl)-1,3-thiazol-2-yl]-5-[(3R)-tetrahydrofuran-3-yloxy]benzamide] | 266 | 982
CCc1cnc(-c2cc(O[C@H]3CCOC3)cc(C(=O)N[C@H](C)c3ccc(C)nn3)c2)s1 [Example 249, 3-(5-ethyl-1,3-thiazol-2-yl)-N-[(1R)-1-(6-methylpyridazin-3-yl)ethyl]-5-[(3S)-tetrahydrofuran-3-yloxy]benzamide] | 11 | 57
CCc1cnc(-c2cc(O[C@H]3CCOC3)cc(C(=O)N[C@H](C)c3cnc(C(F)(F)F)nc3)c2)s1 [Example 251, 3-(5-ethyl-1,3-thiazol-2-yl)-5-[(3S)-tetrahydrofuran-3-yloxy]-N-{(1R)-1-[2-(trifluoromethyl)pyrimidin-5-yl]ethyl}benzamide] | 5 | 38
Cc1ccc([C@@H](C)NC(=O)c2cc(O[C@H]3CCOC3)cc(-c3ncc(C(C)C)s3)c2)nn1 [Example 255, N-[(1R)-1-(6-methylpyridazin-3-yl)ethyl]-3-[5-(propan-2-yl)-1,3-thiazol-2-yl]-5-[(3S)-tetrahydrofuran-3-yloxy]benzamide] | 254 | 449

Further molecules by falling IC50 (human P2X3 receptor), results first:

IC50 (human P2X3 receptor) [nM] | IC50 (human P2X2/3 receptor) [nM] | SMILES
1420 | 2170 | C[C@H](NC(=O)c1cc(OC[C@H]2CCOC2)cc(-c2ncc(C3CCC3)s2)c1)c1cnc(C(F)(F)F)nc1 [Example 239, 3-(5-cyclobutyl-1,3-thiazol-2-yl)-5-[(3S)-tetrahydrofuran-3-ylmethoxy]-N-{(1S)-1-[2-(trifluoromethyl)pyrimidin-5-yl]ethyl}benzamide]
177 | 537 | Cc1ccc(CNC(=O)c2cc(OC3CCOCC3)cc(-c3ncc(C4CCC4)s3)c2)nn1 [Example 237, 3-(5-cyclobutyl-1,3-thiazol-2-yl)-N-[(6-methylpyridazin-3-yl)methyl]-5-(tetrahydro-2H-pyran-4-yloxy)benzamide]
44 | 273 | CC(C)c1cnc(-c2cc(O[C@@H]3CCOC3)cc(C(=O)N[C@H](C)c3cnc(C(F)(F)F)nc3)c2)s1 [Example 248, 3-[5-(propan-2-yl)-1,3-thiazol-2-yl]-5-[(3R)-tetrahydrofuran-3-yloxy]-N-{(1R)-1-[2-(trifluoromethyl)pyrimidin-5-yl]ethyl}benzamide]
38 | 397 | C[C@@H](NC(=O)c1cc(OC2CCOCC2)cc(-c2ncc(C3CCC3)s2)c1)c1cnc(C(F)(F)F)nc1 [Example 238, 3-(5-cyclobutyl-1,3-thiazol-2-yl)-5-(tetrahydro-2H-pyran-4-yloxy)-N-{(1R)-1-[2-(trifluoromethyl)pyrimidin-5-yl]ethyl}benzamide]
18 | 70 | CCc1cnc(-c2cc(OC3CCOCC3)cc(C(=O)NCc3ccc(C)nn3)c2)s1 [Example 235, 3-(5-ethyl-1,3-thiazol-2-yl)-N-[(6-methylpyridazin-3-yl)methyl]-5-(tetrahydro-2H-pyran-4-yloxy)benzamide]
